Experimental data: publication PMC9127186, “Molecular Basis Underlying Hepatobiliary and Renal Excretion of Phenolic Acids of Salvia miltiorrhiza Roots (Danshen)” (Frontiers in Pharmacology, 2022)

What was measured:
rat Pept2 = target: T1, rat Pept2 (Rattus norvegicus, UniProt Q63424); assay: Cellular transport assay, HEK-293 cells expressing rat Pept2; settings: Danshen phenolic acid at 100 μM final concentration, 10 min, incubation pH 6.0; rat Pept2-transfected vs mock cells
T1 sequence (Q63424 1-729): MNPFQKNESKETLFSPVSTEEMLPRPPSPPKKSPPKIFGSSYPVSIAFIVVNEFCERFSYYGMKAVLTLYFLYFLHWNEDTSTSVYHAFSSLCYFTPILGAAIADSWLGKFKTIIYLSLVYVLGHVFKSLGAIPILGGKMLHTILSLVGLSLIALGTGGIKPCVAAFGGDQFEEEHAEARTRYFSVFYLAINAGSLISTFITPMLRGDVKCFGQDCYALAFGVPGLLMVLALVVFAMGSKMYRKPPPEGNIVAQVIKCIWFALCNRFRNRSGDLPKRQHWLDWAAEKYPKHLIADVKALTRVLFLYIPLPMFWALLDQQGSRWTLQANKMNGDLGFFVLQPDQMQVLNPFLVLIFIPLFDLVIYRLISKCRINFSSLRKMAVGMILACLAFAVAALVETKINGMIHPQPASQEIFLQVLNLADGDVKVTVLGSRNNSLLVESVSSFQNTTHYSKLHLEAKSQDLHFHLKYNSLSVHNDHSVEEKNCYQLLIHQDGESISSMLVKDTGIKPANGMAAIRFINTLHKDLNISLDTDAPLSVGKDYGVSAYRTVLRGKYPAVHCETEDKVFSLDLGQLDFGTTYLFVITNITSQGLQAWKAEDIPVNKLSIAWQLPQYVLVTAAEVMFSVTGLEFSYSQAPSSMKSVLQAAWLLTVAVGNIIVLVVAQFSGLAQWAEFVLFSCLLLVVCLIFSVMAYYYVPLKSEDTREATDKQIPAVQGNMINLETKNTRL

rat Pept1 = target: T2, rat Pept1 (Rattus norvegicus, UniProt P51574); assay: Cellular transport assay, HEK-293 cells expressing rat Pept1; settings: Danshen phenolic acid at 100 μM final concentration, 10 min, incubation pH 6.0; rat Pept1-transfected vs mock cells
T2 sequence (P51574 1-710): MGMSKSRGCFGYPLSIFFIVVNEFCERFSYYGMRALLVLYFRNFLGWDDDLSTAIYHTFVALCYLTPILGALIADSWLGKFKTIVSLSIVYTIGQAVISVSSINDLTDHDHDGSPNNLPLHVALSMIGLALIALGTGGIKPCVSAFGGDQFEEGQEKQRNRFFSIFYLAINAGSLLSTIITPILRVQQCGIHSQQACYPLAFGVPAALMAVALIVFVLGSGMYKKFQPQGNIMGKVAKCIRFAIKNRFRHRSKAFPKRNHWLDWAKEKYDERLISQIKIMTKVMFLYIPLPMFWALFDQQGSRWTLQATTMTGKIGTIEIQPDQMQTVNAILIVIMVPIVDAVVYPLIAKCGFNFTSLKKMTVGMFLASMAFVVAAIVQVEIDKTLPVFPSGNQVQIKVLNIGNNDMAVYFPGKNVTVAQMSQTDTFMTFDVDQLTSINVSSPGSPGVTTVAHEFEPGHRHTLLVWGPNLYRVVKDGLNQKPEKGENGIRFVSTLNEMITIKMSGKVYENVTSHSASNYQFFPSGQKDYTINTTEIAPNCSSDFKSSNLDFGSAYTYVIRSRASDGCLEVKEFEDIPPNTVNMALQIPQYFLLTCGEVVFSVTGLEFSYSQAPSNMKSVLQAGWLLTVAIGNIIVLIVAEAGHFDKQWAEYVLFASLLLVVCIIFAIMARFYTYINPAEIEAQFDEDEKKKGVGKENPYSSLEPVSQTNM

rat Oct3 = target: T3, rat Oct3 (Rattus norvegicus, UniProt O88446); assay: Cellular transport assay, HEK-293 cells expressing rat Oct3; settings: Danshen phenolic acid at 100 μM final concentration, 10 min; rat Oct3-transfected vs mock cells
T3 sequence (O88446 1-551): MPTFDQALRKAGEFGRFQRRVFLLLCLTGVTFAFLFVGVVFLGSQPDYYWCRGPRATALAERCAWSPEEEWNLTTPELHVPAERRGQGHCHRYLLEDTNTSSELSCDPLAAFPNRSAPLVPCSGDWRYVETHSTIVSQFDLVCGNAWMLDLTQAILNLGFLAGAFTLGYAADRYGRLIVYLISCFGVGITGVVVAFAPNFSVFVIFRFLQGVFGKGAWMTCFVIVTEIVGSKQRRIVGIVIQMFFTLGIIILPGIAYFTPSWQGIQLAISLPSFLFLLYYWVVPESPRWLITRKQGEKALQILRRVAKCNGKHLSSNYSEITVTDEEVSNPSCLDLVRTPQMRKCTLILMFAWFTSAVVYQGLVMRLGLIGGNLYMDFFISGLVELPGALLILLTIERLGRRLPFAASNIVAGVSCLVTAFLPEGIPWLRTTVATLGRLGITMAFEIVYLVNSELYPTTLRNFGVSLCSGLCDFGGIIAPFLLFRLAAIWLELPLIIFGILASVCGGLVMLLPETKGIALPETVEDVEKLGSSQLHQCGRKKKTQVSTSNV

human OATP2B1 = target: T4, human OATP2B1 (Homo sapiens, UniProt O94956); assay: Cellular transport assay, HEK-293 cells expressing human OATP2B1; settings: Danshen phenolic acid at 100 μM final concentration, 10 min; human OATP2B1-transfected vs mock cells
T4 sequence (O94956 1-709): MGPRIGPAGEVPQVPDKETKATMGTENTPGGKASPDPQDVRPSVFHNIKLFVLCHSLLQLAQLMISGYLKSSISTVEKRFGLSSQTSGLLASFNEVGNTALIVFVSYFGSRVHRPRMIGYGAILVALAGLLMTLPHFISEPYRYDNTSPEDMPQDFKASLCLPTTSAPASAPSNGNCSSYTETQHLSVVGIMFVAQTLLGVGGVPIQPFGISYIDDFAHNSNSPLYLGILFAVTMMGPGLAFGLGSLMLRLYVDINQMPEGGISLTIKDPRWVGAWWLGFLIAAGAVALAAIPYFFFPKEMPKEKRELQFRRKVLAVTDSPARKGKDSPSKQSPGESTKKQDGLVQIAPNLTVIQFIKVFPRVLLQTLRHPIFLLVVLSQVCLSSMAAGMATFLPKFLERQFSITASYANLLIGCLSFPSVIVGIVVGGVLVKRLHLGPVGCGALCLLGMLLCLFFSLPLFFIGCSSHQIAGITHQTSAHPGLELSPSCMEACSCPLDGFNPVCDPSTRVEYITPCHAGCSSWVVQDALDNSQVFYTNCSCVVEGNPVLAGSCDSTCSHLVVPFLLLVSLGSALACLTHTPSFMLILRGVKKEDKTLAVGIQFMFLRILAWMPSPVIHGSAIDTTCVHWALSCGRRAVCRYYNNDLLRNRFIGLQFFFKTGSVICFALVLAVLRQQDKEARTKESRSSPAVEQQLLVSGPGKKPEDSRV

Row | Compound | TransportTC/TransportMC ratio (net transport ratio) (rat Pept2) | TransportTC/TransportMC ratio (net transport ratio) (rat Pept1) | TransportTC/TransportMC ratio (net transport ratio) (rat Oct3) | TransportTC/TransportMC ratio (net transport ratio) (human OATP2B1)
1 | O=C(/C=C/c1ccc(O)c2c1[C@H](C(=O)O)[C@@H](c1ccc(O)c(O)c1)O2)O[C@H](Cc1ccc(O)c(O)c1)C(=O)O [Lithospermic acid, lithospermic acid] | 0.85 ± 0.14 | 1.31 ± 0.32 | 0.81 ± 0.13 | 1.16 ± 0.27
2 | O=C(O)c1ccc(O)c(O)c1 [Protocatechuic acid, protocatechuic acid] | 1.21 ± 0.26 | 1.37 ± 0.36 | 0.85 ± 0.11 | 1.36 ± 0.15
3 | O=C(/C=C/c1ccc(O)c(O)c1)O[C@H](Cc1ccc(O)c(O)c1)C(=O)O [Rosmarinic acid, rosmarinic acid] |  |  | 0.74 ± 0.24 | 
4 | O=C(O)Cc1c(/C=C/C(=O)O[C@H](Cc2ccc(O)c(O)c2)C(=O)O)ccc(O)c1O [Salvianolic acid D, salvianolic acid D] | 1.88 ± 0.45 | 1.43 ± 0.36 | 0.93 ± 0.15 | 2.27 ± 1.16
5 | salvianolic acid B | 0.94 ± 0.21 | 1.21 ± 0.45 | 0.84 ± 0.31 | 1.32 ± 0.33
